Source: patent publication US20250353891A1 (MEDIMMUNE LIMITED, priority 2022, published 2025)
Starred links: 1 amine or outer side, 2 acyl side, 3 side chain; linkers in the order of their positions; H or OH if unused. Non-standard residues stand in square brackets, D forms with d. Residues, ends and D or L forms follow the SMILES beside them. Groups on a side chain read outwards from the residue. *: point of attachment. C18 diacid = O=C(O)CCCCCCCCCCCCCCCCC(=O)*; γGlu = O=C(O)[C@H](CCC(=O)[*:2])N[*:1]; αMeF = C[C@](N)(Cc1ccccc1)C(=O)O; AEEA = NCCOCCOCC(=O)O; Aib = CC(C)(N)C(=O)O

Legend:
[1] = biological target: human GLP-1 receptor (hGLP-1R) (Homo sapiens, UniProt P43220); experiment: cAMP production (HTRF) in CHO cells expressing hGLP-1R; type: cell-based; design: expressed in transfected cells; conditions: for EC50: Table 6, peptides modified at position 17, cAMP in CHO hGLP-1R cells, geometric mean, read-out: hGLP-1R EC50; for % Relative Potency Ratio: Table 6, % GLP-1R activity relative to GLP-1 / % GlucR activity relative to glucagon
Summary of the method: (§1)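 Potency values represent EC50 from 4-parameter logistic curves of HTRF % Delta F signal. Receptor-expressing CHO cells (hGCGR 2×10^5 cells/mL, hGLP-1R 1×10^5 cells/mL) were exposed for 30 min at room temperature before two-step cAMP detection.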

[2] = biological target: human glucagon receptor (hGCGR) (Homo sapiens, UniProt P47871); experiment: cAMP production (HTRF) in CHO cells expressing hGCGR; type: cell-based; design: expressed in transfected cells; conditions: Table 6, peptides modified at position 17; cAMP in CHO hGCGR cells; geometric mean; read-out: hGluc-R EC50
Summary of the method: as §1

Sequence of human glucagon receptor (hGCGR) (P47871 26-477): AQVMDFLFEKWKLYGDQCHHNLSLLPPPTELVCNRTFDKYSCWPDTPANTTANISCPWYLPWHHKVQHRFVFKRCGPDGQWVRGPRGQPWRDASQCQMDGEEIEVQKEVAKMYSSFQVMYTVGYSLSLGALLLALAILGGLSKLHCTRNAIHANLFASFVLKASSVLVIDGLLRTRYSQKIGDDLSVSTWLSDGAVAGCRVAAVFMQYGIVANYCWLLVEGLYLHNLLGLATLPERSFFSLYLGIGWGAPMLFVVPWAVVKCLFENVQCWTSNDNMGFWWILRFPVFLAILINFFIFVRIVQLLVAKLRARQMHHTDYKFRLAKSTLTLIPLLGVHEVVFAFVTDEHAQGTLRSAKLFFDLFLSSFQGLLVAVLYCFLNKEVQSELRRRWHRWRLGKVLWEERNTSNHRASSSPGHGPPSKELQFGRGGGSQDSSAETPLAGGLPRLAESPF
Sequence of human GLP-1 receptor (hGLP-1R) (P43220 24-463): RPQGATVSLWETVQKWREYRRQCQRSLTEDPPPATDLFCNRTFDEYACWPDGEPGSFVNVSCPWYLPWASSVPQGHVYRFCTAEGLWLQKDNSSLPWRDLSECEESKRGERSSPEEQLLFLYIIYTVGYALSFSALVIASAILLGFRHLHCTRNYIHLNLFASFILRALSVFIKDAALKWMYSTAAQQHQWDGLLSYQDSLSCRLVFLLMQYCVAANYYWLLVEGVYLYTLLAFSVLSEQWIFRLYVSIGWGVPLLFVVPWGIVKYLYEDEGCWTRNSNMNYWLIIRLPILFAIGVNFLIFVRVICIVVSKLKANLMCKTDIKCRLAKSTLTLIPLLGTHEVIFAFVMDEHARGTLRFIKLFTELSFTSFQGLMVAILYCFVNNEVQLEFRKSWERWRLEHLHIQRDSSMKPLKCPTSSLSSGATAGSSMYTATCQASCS

SMILES | EC50 [1] [nM] | % Relative Potency Ratio [1] | EC50 [2] [nM]
CC(C)C[C@H](NC(=O)[C@H](Cc1c[nH]c2ccccc12)NC(=O)[C@H](CCCNC(=N)N)NC(=O)[C@@H](NC(=O)[C@H](Cc1ccccc1)NC(=O)[C@H](CC(=O)O)NC(=O)[C@H](CCC(N)=O)NC(=O)[C@H](C)NC(=O)[C@H](CCCNC(=N)N)NC(=O)[C@H](CCCCNC(=O)COCCOCCNC(=O)COCCOCCNC(=O)CC[C@H](NC(=O)CCCCCCCCCCCCCCCCC(=O)O)C(=O)O)NC(=O)[C@H](CO)NC(=O)[C@H](CC(=O)O)NC(=O)[C@H](CC(C)C)NC(=O)[C@](C)(Cc1ccccc1)NC(=O)[C@H](CCCCN)NC(=O)[C@H](CO)NC(=O)[C@@H](NC(=O)[C@H](CC(=O)O)NC(=O)[C@H](CO)NC(=O)[C@@H](NC(=O)[C@H](Cc1ccccc1)NC(=O)[C@@H](NC(=O)CNC(=O)[C@H](CCC(N)=O)NC(=O)C(C)(C)NC(=O)[C@@H](N)Cc1c[nH]cn1)[C@@H](C)O)[C@@H](C)O)C(C)C)C(C)C)C(=O)N[C@@H](CC(C)C)C(=O)NC(C)(C)C(=O)N[C@H](C(=O)NCC(=O)O)[C@@H](C)O [Peptide 30] (H-H[Aib]QGTFTSDVSK[αMeF]LDSK([AEEA-AEEA-γGlu-C18 diacid])RAQDFVRWLL[Aib]TG-OH; N-terminus assumed) | 0.0527 | 8.8 | 0.235
CC(C)C[C@H](NC(=O)[C@H](Cc1c[nH]c2ccccc12)NC(=O)[C@H](CCC(N)=O)NC(=O)[C@@H](NC(=O)[C@H](Cc1ccccc1)NC(=O)[C@H](CC(=O)O)NC(=O)[C@H](CCC(N)=O)NC(=O)[C@H](C)NC(=O)[C@H](CCCNC(=N)N)NC(=O)[C@H](CCCCNC(=O)COCCOCCNC(=O)COCCOCCNC(=O)CC[C@H](NC(=O)CCCCCCCCCCCCCCCCC(=O)O)C(=O)O)NC(=O)[C@H](CO)NC(=O)[C@H](CC(=O)O)NC(=O)[C@H](CC(C)C)NC(=O)[C@](C)(Cc1ccccc1)NC(=O)[C@H](CCCCN)NC(=O)[C@H](CO)NC(=O)[C@@H](NC(=O)[C@H](CC(=O)O)NC(=O)[C@H](CO)NC(=O)[C@@H](NC(=O)[C@H](Cc1ccccc1)NC(=O)[C@@H](NC(=O)CNC(=O)[C@H](CCC(N)=O)NC(=O)C(C)(C)NC(=O)[C@@H](N)Cc1c[nH]cn1)[C@@H](C)O)[C@@H](C)O)C(C)C)C(C)C)C(=O)N[C@@H](CCC(=O)O)C(=O)NC(C)(C)C(=O)N[C@H](C(=O)O)[C@@H](C)O [Peptide 33] (H-H[Aib]QGTFTSDVSK[αMeF]LDSK([AEEA-AEEA-γGlu-C18 diacid])RAQDFVQWLE[Aib]T-OH) | 0.213 | 5.1 | 0.548
CC(C)C[C@H](NC(=O)[C@H](Cc1c[nH]c2ccccc12)NC(=O)[C@H](CCC(N)=O)NC(=O)[C@@H](NC(=O)[C@H](Cc1ccccc1)NC(=O)[C@H](CC(=O)O)NC(=O)[C@H](CCC(N)=O)NC(=O)[C@H](C)NC(=O)[C@H](CCCNC(=N)N)NC(=O)[C@H](CCCCNC(=O)COCCOCCNC(=O)COCCOCCNC(=O)CC[C@H](NC(=O)CCCCCCCCCCCCCCCCC(=O)O)C(=O)O)NC(=O)[C@H](CO)NC(=O)[C@H](CC(=O)O)NC(=O)[C@H](CC(C)C)NC(=O)[C@](C)(Cc1ccccc1)NC(=O)[C@H](CCCCN)NC(=O)[C@H](CO)NC(=O)[C@@H](NC(=O)[C@H](CC(=O)O)NC(=O)[C@H](CO)NC(=O)[C@@H](NC(=O)[C@H](Cc1ccccc1)NC(=O)[C@@H](NC(=O)CNC(=O)[C@H](CCC(N)=O)NC(=O)C(C)(C)NC(=O)[C@@H](N)Cc1c[nH]cn1)[C@@H](C)O)[C@@H](C)O)C(C)C)C(C)C)C(=O)N[C@@H](CC(C)C)C(=O)NC(C)(C)C(=O)N[C@@H](CCC(=O)O)C(=O)O [Peptide 34] (H-H[Aib]QGTFTSDVSK[αMeF]LDSK([AEEA-AEEA-γGlu-C18 diacid])RAQDFVQWLL[Aib]E-OH; N-terminus assumed) | 0.0824 | 3.9 | 0.161
CC(C)C[C@H](NC(=O)[C@H](Cc1c[nH]c2ccccc12)NC(=O)[C@H](CCC(N)=O)NC(=O)[C@@H](NC(=O)[C@H](Cc1ccccc1)NC(=O)[C@H](CC(=O)O)NC(=O)[C@H](CCC(N)=O)NC(=O)[C@H](C)NC(=O)[C@H](CCCNC(=N)N)NC(=O)[C@H](CCCCNC(=O)COCCOCCNC(=O)COCCOCCNC(=O)CC[C@H](NC(=O)CCCCCCCCCCCCCCCCC(=O)O)C(=O)O)NC(=O)[C@@H](NC(=O)[C@H](CC(=O)O)NC(=O)[C@H](CC(C)C)NC(=O)[C@](C)(Cc1ccccc1)NC(=O)[C@H](CCCCN)NC(=O)[C@H](CO)NC(=O)[C@@H](NC(=O)[C@H](CC(=O)O)NC(=O)[C@H](CO)NC(=O)[C@@H](NC(=O)[C@H](Cc1ccccc1)NC(=O)[C@@H](NC(=O)CNC(=O)[C@H](CCC(N)=O)NC(=O)C(C)(C)NC(=O)[C@@H](N)Cc1c[nH]cn1)[C@@H](C)O)[C@@H](C)O)C(C)C)[C@@H](C)O)C(C)C)C(=O)N[C@@H](CC(C)C)C(=O)NC(C)(C)C(=O)N[C@H](C(=O)O)[C@@H](C)O [Peptide 35] (H-H[Aib]QGTFTSDVSK[αMeF]LDTK([AEEA-AEEA-γGlu-C18 diacid])RAQDFVQWLL[Aib]T-OH; N-terminus assumed) | 0.0837 | 7.9 | 0.335

Molecules with a lower EC50 [1], results first:

EC50 [1] [nM] | % Relative Potency Ratio [1] | EC50 [2] [nM] | SMILES
0.0413 | 2.7 | 0.0568 | CC(C)C[C@H](NC(=O)[C@H](Cc1c[nH]c2ccccc12)NC(=O)[C@H](CCCNC(=N)N)NC(=O)[C@@H](NC(=O)[C@H](Cc1ccccc1)NC(=O)[C@H](CC(=O)O)NC(=O)[C@H](CCC(N)=O)NC(=O)[C@H](C)NC(=O)[C@H](CCCNC(=N)N)NC(=O)[C@H](CCCCNC(=O)COCCOCCNC(=O)COCCOCCNC(=O)CC[C@H](NC(=O)CCCCCCCCCCCCCCCCC(=O)O)C(=O)O)NC(=O)[C@H](CO)NC(=O)[C@H](CC(=O)O)NC(=O)[C@H](CC(C)C)NC(=O)[C@](C)(Cc1ccccc1)NC(=O)[C@H](CCCCN)NC(=O)[C@H](CO)NC(=O)[C@@H](NC(=O)[C@H](CC(=O)O)NC(=O)[C@H](CO)NC(=O)[C@@H](NC(=O)[C@H](Cc1ccccc1)NC(=O)[C@@H](NC(=O)CNC(=O)[C@H](CCC(N)=O)NC(=O)C(C)(C)NC(=O)[C@@H](N)Cc1c[nH]cn1)[C@@H](C)O)[C@@H](C)O)C(C)C)C(C)C)C(=O)N[C@@H](CC(C)C)C(=O)N[C@@H](CCC(=O)O)C(=O)NC(C)(C)C(=O)NCC(=O)O [Peptide 31] (H-H[Aib]QGTFTSDVSK[αMeF]LDSK([AEEA-AEEA-γGlu-C18 diacid])RAQDFVRWLLE[Aib]G-OH; N-terminus assumed)
0.013 | 36.7 | 0.24 | CC[C@H](C)[C@H](NC(=O)[C@H](Cc1c[nH]c2ccccc12)NC(=O)[C@H](CCC(N)=O)NC(=O)[C@@H](NC(=O)[C@H](Cc1ccccc1)NC(=O)[C@H](CC(=O)O)NC(=O)C(C)(C)NC(=O)[C@H](C)NC(=O)[C@H](CCCNC(=N)N)NC(=O)[C@H](CCCCNC(=O)CC[C@H](NC(=O)CCCCCCCCCCCCCCCCC(=O)O)C(=O)O)NC(=O)[C@H](CO)NC(=O)[C@H](CC(=O)O)NC(=O)[C@H](CC(C)C)NC(=O)[C@](C)(Cc1ccccc1)NC(=O)[C@H](CCCCN)NC(=O)[C@H](CO)NC(=O)[C@@H](NC(=O)[C@H](CC(=O)O)NC(=O)[C@H](CO)NC(=O)[C@@H](NC(=O)[C@H](Cc1ccccc1)NC(=O)[C@@H](NC(=O)CNC(=O)[C@H](CCC(N)=O)NC(=O)C(C)(C)NC(=O)[C@@H](N)Cc1c[nH]cn1)[C@@H](C)O)[C@@H](C)O)C(C)C)C(C)C)C(=O)N[C@@H](C)C(=O)N[C@@H](CC(N)=O)C(=O)N[C@H](C(N)=O)[C@@H](C)O [Peptide 32] (H-H[Aib]QGTFTSDVSK[αMeF]LDSK([γGlu-C18 diacid])RA[Aib]DFVQWIANT-NH2; N-terminus assumed)
